The structures appear in SMILES notation. Several values for one entry are separate records, joined by “and”; a condition that tells them apart may be missing. Equal values may be shown once.

The nature of the data set: Analysis of 1/T1 ^1H NMRD profiles. The data set is classed as physicochemical. The protocol: The relaxometric characterization of the Gd complexes was carried out by recording their ^1H nuclear magnetic relaxation dispersion (NMRD) profiles at 283, 298, and 310 K in the proton Larmor frequency range 0.01–120 MHz, corresponding to magnetic field strengths varying between 2.34 × 10^–4 and 3 T (Figure 2). The shape of the NMRD profiles and their temperature dependence (r1 decreases with increasing temperature) reflect the general behavior of small Gd^III complexes, characterized by a constant r1 value at low fields, a dispersion around 4–6 MHz, and another region at high fields (>20 MHz) where r1 slightly decreases. […] A least-squares fit of the profiles was carried out in terms of the established theory of paramagnetic relaxation expressed by the Solomon–Bloembergen–Morgan[30],[31] and Freed’s[32] equations for the innersphere (IS) and outersphere (OS) proton relaxation mechanisms, respectively (Table 3). Because of the large number of parameters involved in the fitting procedure, some of them were fixed to known or reasonable values: The hydration number q was fixed to 1, and the distance between Gd^III and the protons of the bound water molecule, r, was fixed to 3.0 Å; the distance of closest approach, a, of the outersphere water molecules to Gd^III was set to 4.0 Å, and for the relative diffusion coefficient D, standard values of 1.7, 2.24, and 3.1 × 10^–5 cm^2 s^–1 (283, 298, and 310 K) were used. […] The difference in relaxivity between GdL1 and GdL2 cannot account for the difference in τR since their molecular weight is very similar; therefore, we considered that the pendant propionate moiety of GdL2 allows for the presence of second sphere (SS) water molecules in H-bonding interaction with the carboxylate group at a distance from Gd^III sufficiently short (<4 Å) and with a residence time sufficiently long to be affected by the rotation. […] Therefore, we analyzed the NMRD profiles for GdL2 also considering the SS contribution, expressed in terms of two additional parameters: the number qSS of second sphere water molecules and their rotational correlation time, τR(SS). The average distance from the paramagnetic center was arbitrarily fixed at 3.5 Å, an intermediate value between those of water molecules in the inner (3.0 Å) and outer (4.0 Å) solvation shell.[33] In addition, since GdL1 and GdL2 are structurally related to the recently reported GdHPADO3A-like complexes having a carbonyl group in place of the methyl group present in GdHPDO3A, τM was fixed to that reported for GdHPADO3A at pH 7 (20 ns).[7] The electronic and reorientation parameters reported in Table 3 for GdL1 and GdL2 are in good agreement with those of other GdHPDO3A-like complexes. Finally, considering the contribution of two second sphere water molecules characterized by a rotational correlation time τR(SS) of 30 ps, the contribution of the SS molecules to the relaxivity of GdL2 is about 0.3 mM^–1 s^–1 at 20 MHz and 298 K almost equal to the Δr1 between GdL1 and GdL2.
Proton relaxation measurements (1/T1) and the resulting 1/T1 NMRD profiles were measured on a fast-field cycling (FFC) Stelar SmarTracer relaxometer over a continuum of magnetic field strengths from 0.000 24 to 0.25 T (corresponding to 0.01–10 MHz proton Larmor frequencies). The relaxometer operates under computer control with an absolute uncertainty in 1/T1 of ±1%. […] Furthermore, the real temperature inside the probe head was additionally monitored by a Fluke 52 k/j digital thermometer (Fluke, Zürich, Switzerland). The gadolinium concentration was determined by measuring the bulk magnetic susceptibility shifts of the t-BuOH ^1H NMR signal. Additional data in the 20–120 MHz frequency range were obtained with a high field relaxometer (Stelar) equipped with the HTS-110 3T metrology cryogen-free superconducting magnet. […] The pH-dependent relaxivity measurements of GdL1 and GdL2 complexes were carried out by direct titration of the samples (GdL2, 3.0 < pH < 12.5; GdL1, 4 < pH < 10). […]

Consider `O=C([O-])CN1CCN(CC(=O)[O-])CCN(CC(O)C(=O)O)CCN(CC(=O)[O-])CC1.[Gd+3]` (stereo not shown) [GdL2], for which the “contribution of the second sphere (SS) water molecules to the relaxivity” value (20 MHz, 298 K, qSS = 2, τR(SS) 30 ps) was “about 0.3 mM^–1 s^–1”. Also, the “^298r1-60-MHz” value (298 K, 60 MHz, pH 7.4) is listed as 4.6 ± 0.1 mM^–1 s^–1. Moreover, the “^310r1-60-MHz” value (310 K, 60 MHz, pH 7.4) was determined as 3.6 ± 0.1 mM^–1 s^–1. Under “NMRD fit”, the “Δ^2” value is 8.5 ± 0.2 10^19 s^–2 and the τv is listed as 13.7 ± 0.5 ps. Also, the τR (NMRD fit, q = 1) is 68 ± 2 ps. The “τR(SS)” value (determined for qSS = 2 and rSF = 3.5 Å) is 30 ps and 30 ± 2 ps.
